# Test system: human embryonic stem cell line H1
# Assay: Real-time PCR gene expression, dose and stage of ascorbic acid (Example 12)
# Assay type: cell-based
# Protocol: Cells of the human embryonic stem cell line H1 at various passages (passage 40 to passage 52) were seeded as single cells at a density of 100,000 cells/cm^2 on MATRIGEL™ (1:30 dilution) coated dishes in mTesr™1 media and 10 μM of Y27632. Forty eight hours post seeding, cultures were differentiated into pancreatic endocrine lineage as follows: • a. Stage 1 (Definitive Endoderm (DE)−3 days): Prior to start of DE, the cultures were washed and incubated with incomplete PBS (no Mg or Ca) for 30 seconds followed by addition of the stage 1 media. Human embryonic stem cells cultured as single cells on MATRIGEL™-coated dishes were treated with MCDB-131 medium supplemented with 0.1% fatty acid-free BSA, 0.0012 g/ml sodium bicarbonate, 1× GLUTAMAX™, 5 mM D-Glucose, and 100 ng/ml GDF8 plus 1 μM MCX compound (GSK3B inhibitor) for one day. Cells were then treated with MCDB-131 medium supplemented with 0.1% fatty acid-free BSA, 0.0012 g/ml sodium bicarbonate, 1× GLUTAMAX™, 5 mM glucose, and 100 ng/ml GDF8 plus 100 nM MCX compound for day two, followed by an additional day in MCDB-131 medium supplemented with 0.1% fatty acid-free BSA, 0.0012 g/ml sodium bicarbonate, 1× GLUTAMAX™, 5 mM Glucose, and 100 ng/ml GDF8. • b. Stage 2 (Primitive gut tube−2 days): Stage 1 cells were treated with MCDB-131 medium supplemented with 0.1% fatty acid-free BSA, 0.0012 g/ml sodium bicarbonate, 1× GLUTAMAX™, 5 mM D-Glucose, with or without the addition of 0.25 mM ascorbic acid and 25 ng/ml FGF7 for two days. • c. Stage 3 (Foregut−2 days): Stage 2 cells were treated with MCDB131 medium supplemented with 1:200 dilution of ITS-X, 2.5 mM Glucose, 1× GLUTAMAX™, 0.0015 g/ml sodium bicarbonate, 2% fatty acid-free BSA, 10 ng/ml Activin A, 25 ng/ml FGF7, 0.25 μM SANT-1, +/−0.25 mM ascorbic acid, 1 μM RA, 200 nM TPB, 100 nM LDN-193189 for day 1, followed by treatment with MCDB131 medium supplemented with 1:200 dilution of ITS-X, 2.5 mM Glucose, 1× GLUTAMAX™, 0.0015 g/ml sodium bicarbonate, 2% fatty acid-free BSA, 10 ng/ml Activin A, 25 ng/ml FGF7, 0.25 μM SANT-1, +/−0.25 mM ascorbic acid, 1 μM RA, 200 nM TPB, 10 nM LDN-193189 for an additional day. • d. Stage 4 (Pancreatic foregut precursor-2 days): Stage 3 cells were treated with MCDB131 medium supplemented with 1:200 dilution of ITS-X, 2.5 mM Glucose, 1× GLUTAMAX™, 0.0015 g/ml sodium bicarbonate, 2% fatty acid-free BSA, 0.25 μM SANT-1, 50 nM RA, 200 nM TPB, 50 nM LDN-193189, with or without the addition of 0.25 mM to 1 mM ascorbic acid for two days. • e. […]
# [1] = at stage 5, ascorbic acid added at stages 2-4
compound,measurement,setting,value
O=C1O[C@H]([C@@H](O)CO)C(O)=C1O [ascorbic acid],benefit of 0.5-1 mM as compared to 0.25 mM ascorbic acid,at S4,no significant benefit
same,expression of insulin and Pax4,[1],maintaining
same,"expression of somatostatin, glucagon, and Pax6",[1],significantly reduced
same,expression of glucagon and somatostatin,"at stage S3-5, ascorbic acid added at stage 2",effective in lowering
